Patent US7368475B2, “Furanose-type bicyclic carbohydrates with biological activity” (Kemin Pharma BVBA, priority 2003, dated 2008)
≈ marks a conversion by molar mass, not a printed value.

How the values were obtained:
[1] = tested on: human T-lymphocyte cells (CEM/0); test: Inhibition of proliferation of human T-lymphocyte cells CEM/0; format: cell-based; conditions: CCRF-CEM, cytostatic activity, 50% inhibitory concentration
Method: (§1) The compounds were tested for antitumor activity via the inhibitory effects on the proliferation of murine leukemia cells (L1210/0), murine mammary carcinoma cells (FM3A) and human T-lymphocyte cells (Molt4/C8), (CEM/0). […] Compound A1 and Compound A4 show no effect at concentrations up to 200 ppm.

[2] = tested on: S. aureus ATCC 29213 LMG 10147; test: microbe, parasite or virus in culture; format: cell-based; conditions: Staphylococcus aureus, negative control = 100, read-out: % of growth at 25 PPM compared to negative control, S. aureus ATCC 29213 LMG 10147
VZV OKA = test: microbe, parasite or virus in culture; format: cell-based, Varicella Zoster Virus; conditions: Human alphaherpesvirus 3, HEL, read-out: EC50 VZV (HEL) OKA
[3] = tested on: murine mammary carcinoma cells (FM3A); test: Inhibition of proliferation of murine mammary carcinoma cells FM3A; format: cell-based; conditions: Mus musculus, cytostatic activity, 50% inhibitory concentration, read-out: IC50 FM3A/0
Method: as §1

[4] = tested on: T. mentagrophytes ATCC 9233 IHEM 10342; test: microbe, parasite or virus in culture; format: cell-based; conditions: Trichophyton mentagrophytes, ATCC9233, negative control = 100, read-out: % of growth at a dose of 25 PPM compared to the negative control, T. mentagrophytes ATCC 9233 IHEM 10342
A. fumigatus IHEM 2895 = test: microbe, parasite or virus in culture; format: cell-based; conditions: Aspergillus fumigatus, IHEM2895, negative control = 100, read-out: % of growth at a dose of 25 PPM compared to the negative control, A. fumigatus IHEM 2895
CMV David Strain = test: CMV plaque formation in HEL cells, David strain; format: cell-based, human Cytomegalovirus; conditions: Human betaherpesvirus 5, virus plaque formation, virus input 100 PFU
CMV AD-169 Strain = test: CMV plaque formation in HEL cells, AD-169 strain; format: cell-based, human Cytomegalovirus; conditions: for IC50: Human betaherpesvirus 5, AD169, virus plaque formation, HEL cells, virus input 100 PFU; for activity against CMV (in words): strain not specified
[5] = tested on: human T-lymphocyte cells (Molt4/C8); test: Inhibition of proliferation of human T-lymphocyte cells Molt4/C8; format: cell-based; conditions: cytostatic activity, 50% inhibitory concentration
Method: as §1

[6] = tested on: murine leukemia cells (L1210/0); test: Inhibition of proliferation of murine leukemia cells L1210/0; format: cell-based; conditions: for IC50: Mus musculus, L1210/0, read-out: IC50 L1210/0; for effect on cell proliferation (in words): at concentrations up to 200 ppm, L1210/0, FM3A
Method: as §1

HSV-2 (G) = test: HSV-2 (G)-induced cytopathicity in human embryo fibroblast E6SM; format: cell-based, Herpes Simplex Virus; conditions: Human alphaherpesvirus 2
[7] = tested on: C. neoformans ATCC 90112 IHEM 9558; test: microbe, parasite or virus in culture; format: cell-based; conditions: Cryptococcus neoformans, ATCC90112, negative control = 100, read-out: % of growth at a dose of 25 PPM compared to the negative control, C. neoformans ATCC 90112 IHEM 9558
VZV 07/1 = test: microbe, parasite or virus in culture; format: cell-based, Varicella Zoster Virus; conditions: Human alphaherpesvirus 3, HEL, read-out: EC50 VZV (HEL) 07/1
HIV-2 (ROD) = test: HIV-2 (ROD)-induced cytopathicity in human CEM cell cultures; format: cell-based; conditions: Human immunodeficiency virus 2, CCRF-CEM
VV = test: VV-induced cytopathicity in human embryo fibroblast E6SM; format: cell-based, Vaccinia Virus; conditions: for EC50: Orthopoxvirus vaccinia, E6SM, read-out: EC50 VV (E6SM)
[8] = tested on: Candida albicans ATCC 24433 IHEM 10284; test: microbe, parasite or virus in culture; format: cell-based; conditions: ATCC24433, negative control = 100, read-out: % of growth at a dose of 25 PPM compared to the negative control, Candida albicans ATCC 24433 IHEM 10284
HIV-1 (IIIB) = test: microbe, parasite or virus in culture; format: cell-based; conditions: Human immunodeficiency virus 1, IIIB, CCRF-CEM; HIV-induced cytopathicity in human CEM cell cultures
E. coli ATCC 25922 = test: microbe, parasite or virus in culture; format: cell-based; conditions: Escherichia coli, ATCC25922, negative control = 100, read-out: % of growth at 25 PPM compared to negative control, E. coli ATCC 25922
HSV-1 (KOS) = test: HSV-1 (KOS)-induced cytopathicity in human embryo fibroblast E6SM; format: cell-based, Herpes Simplex Virus; conditions: Human alphaherpesvirus 1
[9] = tested on: E. faecalis ATCC 29212 LMG 8222; test: microbe, parasite or virus in culture; format: cell-based; conditions: Enterococcus faecalis, negative control = 100, read-out: % of growth at 25 PPM compared to negative control, E. faecalis ATCC 29212 LMG 8222
[10] = tested on: P. aeruginosa ATCC 27853 LMG 16217; test: microbe, parasite or virus in culture; format: cell-based; conditions: Pseudomonas aeruginosa, negative control = 100, read-out: % of growth at 25 PPM compared to negative control, P. aeruginosa ATCC 27853 LMG 16217
[11] = tested on: C. perfringens ATCC 13124; format: cell-based, Clostridium perfringens; conditions: negative control = 100

| Structure (SMILES) | IC50 [1] [µg/mL] | activity at 25 ppm [2] [%] | EC50 (VZV OKA) [µg/mL] | IC50 [3] [µg/mL] | activity at 25 ppm [4] [%] | activity at 25 ppm (A. fumigatus IHEM 2895) [%] | IC50 (CMV David Strain) [µg/mL] | IC50 (CMV AD-169 Strain) [µg/mL] | IC50 [5] [µg/mL] | IC50 [6] [µg/mL] | EC50 (HSV-2 (G)) [µg/mL] | activity at 25 ppm [7] [%] | EC50 (VZV 07/1) [µg/mL] | EC50 (VV) [µg/mL] | activity at 25 ppm [8] [%] | activity at 25 ppm (E. coli ATCC 25922) [%] | EC50 (HSV-1 (KOS)) [µg/mL] | activity at 25 ppm [9] [%] | activity at 25 ppm [10] [%] | % of growth at 25 PPM compared to negative control, C. perfringens ATCC 13124 [11] [%] | further results |
| --- | --- | --- | --- | --- | --- | --- | --- | --- | --- | --- | --- | --- | --- | --- | --- | --- | --- | --- | --- | --- | --- |
| OC[C@H]1O[C@@H](c2ccccc2)[C@H](O)[C@@H]1O [Compound A1, β-D-1-Deoxy-1-phenyl-ribofuranose] | > 200 | 96.7 | > 50 | > 200 | 62.4 | 106 | > 50 | > 50 | > 200 | > 200 | > 400 | 93.3 | > 50 | > 400 | 89.2 | 93.4 | > 400 | 96 | 92.7 |  | melting point: 118 °C; effect on cell proliferation (in words) ([6]; Molt4/C8, CEM/0): no effect; EC50 (HIV-2 (ROD)): > 100 µg/mL; EC50 (HIV-1 (IIIB)): > 100 µg/mL |
| CO[C@@H]1[C@@H]2O[Si](C(C)C)(C(C)C)O[Si](C(C)C)(C(C)C)OC[C@H]2O[C@H]1c1ccccc1 [Compound A3, β-D-1-Deoxy-1-phenyl-2-O-methyl-3,5-O-(1,1,3,3-tetraisopropyldisiloxanylidene)-ribofuranose] | 20 ± 4 (≈ 42.8 µM) | 92.5 | > 2 | 15 (≈ 32.1 µM) | 64.4 | 37.5 | 1.3 (≈ 2.79 µM) | 1.3 (≈ 2.79 µM) | 19 ± 2 (≈ 40.7 µM) | 18 ± 0.5 (≈ 38.6 µM) | > 16 | 81.1 | > 2 | > 16 | 62.2 | 91.3 | > 16 | 94.2 | 87.6 |  | activity against CMV (in words) (CMV AD-169 Strain): significant activity; cytostatic activity (in words) ([6]; text summary over L1210/0, FM3A, Molt4/C8, CEM/0): small cytostatic activity; EC50 (HIV-2 (ROD)): > 4 µg/mL; EC50 (HIV-1 (IIIB)): > 4 µg/mL |
| CO[C@@H]1[C@H](O)[C@@H](CO)O[C@H]1c1ccccc1 [Compound A4, β-D-1-Deoxy-1-phenyl-2-O-methyl-ribofuranose] | > 200 | 96.9 | > 50 | > 200 | 79.7 | 70.9 | > 50 | > 50 | > 200 | > 200 | > 400 | 99.9 | > 50 | > 400 | 110 | 92.8 | > 400 | 95.4 | 93.5 |  | effect on cell proliferation (in words) ([6]; Molt4/C8, CEM/0): no effect; EC50 (HIV-2 (ROD)): > 100 µg/mL; EC50 (HIV-1 (IIIB)): > 100 µg/mL |
| CO[C@@H]1[C@@H]2O[C@H](c3ccccc3)OC[C@H]2O[C@H]1c1ccccc1 [Compound A5, β-D-1-Deoxy-1-phenyl-2-O-methyl-3,5-O-benzylidene-ribose] |  | 92 |  |  | 66 | 57 |  |  |  |  |  | 76 |  |  | 120 | 124 |  | 92 | 91 | 95.0 | activity against CMV (in words) (CMV AD-169 Strain): slight |
| CC(C)[Si]1(C(C)C)OC[C@H]2OC(c3ccccc3)C[C@@H]2O[Si](C(C)C)(C(C)C)O1 (stereo partly drawn) [Compound A6 A + B, α-β-D-1,2-dideoxy-1-phenyl-3,5-O-(1,1,3,3-tetraisopropyldisiloxanylidene)-ribofuranose] |  | 95 |  |  | 56 | 54 |  |  |  |  |  | 102 |  |  | 85 | 94 |  | 95 | 92 | 98.0 |  |
| CC(=O)OC[C@H]1O[C@@H](c2ccccc2)C[C@@H]1OC(C)=O [Compound A7, β-D-1,2-dideoxy-1-phenyl-ribofuranose-3,5-diacetate] |  | 91.2 |  |  | 83 | 95 | > 100 | > 100 |  |  | > 400 | 67.8 |  | > 400 | 83.4 | 94.8 | > 400 | 98.1 | 92.7 | 95.4 |  |
| OC[C@H]1O[C@@H](c2ccccc2)C[C@@H]1O [Compound A8, β-D-1,2-dideoxy-1-phenyl-ribofuranose] |  | 92.3 |  |  | 95 | 107 | > 100 | > 100 |  |  | > 400 | 84.8 |  | > 400 | 92.4 | 99.2 | > 400 | 95.5 | 92.7 | 96.2 | melting point: 89 to 91 °C |
| CC1(C)O[C@H]2O[C@H](COCc3ccccc3)[C@H](OCc3ccccc3)[C@H]2O1 [Compound A9, α-D-1,2-O-isopropylidene-3,5-O-dibenzyl-xylofuranose] |  | 93.7 | > 80 |  | 92 | 74 | 7.6 (≈ 20.5 µM) | 10.5 (≈ 28.3 µM) |  |  | > 80 | 55.1 | > 80 | 48 (≈ 130 µM) | 85.9 | 95.6 | > 80 | 102 | 93 | 95.1 | activity against CMV (in words) (CMV AD-169 Strain): significant activity; activity against VV (in words) (VV; Table 2): slight activity |
